Assay results taken from US11413278B2, “Compounds and methods for promoting stress resistance” (priority 2015, dated 2022).
“Also recorded” adds a separate entry of the source. Like-named read-outs stand apart in the source and are kept apart here.

How the values were obtained:
Format in all cases: cell-based, human
mTOR = mTOR inhibition (RPS6 phosphorylation status), In-Cell Western
In short: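 Read-out is In-Cell Western near-infrared imaging of phospho-RPS6 (Ser-235/236) against total RPS6, using overnight 4° C primary staining and DyLight 680/800 secondaries. Compounds were given to WI-38 cells for 24 hrs at three doses: 5, 10 and 20 μM.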

FOXO3 = experiment: qPCR analysis of FOXO3-regulated genes; conditions: for Induction of at least two of five FOXO3-regulated genes (SOD2, GADD45A, CAT, DDB1, TXNIP): WI-38; for fold induction at 10 µM: Homo sapiens; for K = Sestrin induction: score
In short: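 FOXO3 target-gene expression quantified by qPCR normalised to B2M, PPIA and GAPDH, in WI-38 cells after 24 h exposure to 10 μM compound. Some runs used cells first transfected 36 h with 10 nM FOXO3 or NRF2 siRNA and replated ~24 h before dosing.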

LC3A/B puncta = experiment: Autophagy induction analysis (LC3A/B puncta immuno-staining); conditions: for Exp. 2, normalized change of nuclei numbers (Less cells): 20X objective, lysosomal LAMP co-staining
In short: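 Read-out is LC3A/B puncta intensity per DAPI-positive nucleus, either total puncta (Exp. 1) or puncta colocalizing with LAMP2 lysosomes (Exp. 2). Cells were WI-38, exposed to compounds for 24 hrs before antibody staining overnight at 4° C and automated imaging.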

[1] = 24 h, Assay 10(m), at 10 uM, qPCR, read-out: Induction of FOXO3-regulated genes: GADD45A normalized fold-change
[2] = WI-38 cells, 10 μM, 24 hrs, n=4, qPCR normalized by B2M, read-out: DDB1 Normalized fold change
[3] = WI-38 cells, 10 μM, 24 hrs, n=4, qPCR normalized by B2M, read-out: GADD45A Normalized fold change
[4] = WI-38 cells, 10 μM, 24 hrs, n=4, qPCR normalized by B2M, read-out: SESN1 Normalized fold change
[5] = qPCR, WI-38 cells, 10 μM, n=4, 24 hrs, normalized by B2M, read-out: CAT Normalized fold change
[6] = qPCR, WI-38 cells, 10 μM, n=4, 24 hrs, normalized by B2M, read-out: SOD2 Normalized fold change
[7] = qPCR, WI-38 cells, 10 μM, n=4, 24 hrs, normalized by B2M, read-out: TXNIP Normalized fold change
[8] = Exp. 1, 10 μM, 10X objective, WI-38 cells

Structure (SMILES) | G = mTOR down-regulation (mTOR; 2-point score) | G = mTOR down-regulation (mTOR; summary score) | Induction of at least two of five FOXO3-regulated genes (SOD2, GADD45A, CAT, DDB1, TXNIP) (FOXO3; 10 μM, 24 hrs) | E = Potential FOXO3 Activation (FOXO3; 2-point score) | fold induction at 10 µM (FOXO3; [1]) | fold induction at 10 µM (FOXO3; [2]) | fold induction at 10 µM (FOXO3; [3]) | fold induction at 10 µM (FOXO3; [4]) | fold induction at 10 µM (FOXO3; [5]) | fold induction at 10 µM (FOXO3; [6]) | fold induction at 10 µM (FOXO3; [7]) | K = Sestrin induction (FOXO3) | E = Potential FOXO3 Activation (FOXO3; summary score) | H = Potential Autophagy Induction (LC3A/B puncta; score) | H = Potential Autophagy Induction (LC3A/B puncta; summary score) | further results
CCc1ccccc1NC(=O)c1ccc([N+](=O)[O-])o1 [Gr-1C] | 0 | 0 | significant induction; also recorded: induce FOXO3-regulated genes | 0 | 0.6 | 1.4 | 0.727 | 1.9 | 1.44 | 1.33 | 1.23 | 0 | 0 | 1 | 1 | fold induction at 10 µM (FOXO3; 24 h, Assay 10(m), at 10 uM, qPCR, read-out: Induction of FOXO3-regulated genes: CAT normalized fold-change): 1.41; fold induction at 10 µM (FOXO3; 24 h, Assay 10(m), at 10 uM, qPCR, read-out: Induction of FOXO3-regulated genes: DDB1 normalized fold-change): 1.14; fold induction at 10 µM (FOXO3; 24 h, Assay 10(m), at 10 uM, qPCR, read-out: Induction of FOXO3-regulated genes: SESN1 normalized fold-change): 1.59; fold induction at 10 µM (FOXO3; WI-38, 24 h, read-out: SESN1 expression): > 1.5; fold induction at 10 µM (FOXO3; 10 μM, 24 hrs, WI-38 cells, qPCR, normalized to B2M, n = 4, read-out: CAT expression, normalized fold change (FOXO3-regulated gene)): 1.44; fold induction at 10 µM (FOXO3; fold change, qPCR, WI-38 cells, 10 μM, 24 hrs, read-out: Summary of effects on FOXO3-regulated genes: CAT): 1.44; Assay 15: Potential autophagy induction by LC3A/B puncta assays (LC3A/B puncta; 10 uM & 20 uM, YES/NO): YES; Exp. 1, induction of LC3A/B puncta (Up), total intensity normalized by total number of nuclei in the fields (LC3A/B puncta; [8]): p < 0.01; Up, 956%,; Exp. 1, normalized change of nuclei numbers (Less cells) (LC3A/B puncta; [8]): Less cells, 70%,; Exp. 2, normalized change of nuclei numbers (Less cells) (LC3A/B puncta; Exp. 2, 10 μM, WI-38 cells): Less cells, 58%,; Exp. 2, normalized change of nuclei numbers (Less cells) (LC3A/B puncta; Exp. 2, 20 μM, WI-38 cells): Less cells, 41%,
Oc1ncnc2sc3c(c12)CCC3 [O14] | 0 | 0 | significant induction | 0 | – | 1.08 | 1.2 | 1.14 | 1.03 | 1.27 | 1.39 | 0 | 0 | 0 | 0 | fold induction at 10 µM (FOXO3; 24 h, Assay 10(m), at 10 uM, qPCR, read-out: Induction of FOXO3-regulated genes: SOD2 normalized fold-change): 1.06; fold induction at 10 µM (FOXO3; 24 h, Assay 10(m), at 10 uM, qPCR, read-out: Induction of FOXO3-regulated genes: TXNIP normalized fold-change): 1.27; fold induction at 10 µM (FOXO3; 10 μM, 24 hrs, WI-38 cells, qPCR, normalized to B2M, n = 4, read-out: TXNIP expression, normalized fold change (FOXO3-regulated gene)): 1.39; fold induction at 10 µM (FOXO3; fold change, qPCR, WI-38 cells, 10 μM, 24 hrs, read-out: Summary of effects on FOXO3-regulated genes: TXNIP): 1.39
CC(C)(C)c1ccc(OCC(=O)Nc2ccc3c4c(cccc24)C(=O)NC3=O)cc1 [O22] | 0 | 0 | – | 0 | 1.23 | 1.04 | 1.23 | 1.29 | 1.04 | 1.02 | 0.742 | 0 | 0 | 0 | 0 | fold induction at 10 µM (FOXO3; 10 μM, 24 hrs, WI-38 cells, qPCR, normalized to B2M, n = 4, read-out: GADD45A expression, normalized fold change (FOXO3-regulated gene)): 1.23; fold induction at 10 µM (FOXO3; fold change, qPCR, WI-38 cells, 10 μM, 24 hrs, read-out: Summary of effects on FOXO3-regulated genes: GADD45A): 1.23
O=C1NCCCc2cc(Cl)sc21 [O1] | 0 | 0 | – | 0 | – | 1.2 | 0.853 | 1.18 | 1.25 | 1.11 | 1.11 | 0 | 0 | 0 | 0 | –
